37 compounds from patent US7982042B2, “Thiozanthene derivatives as delta-opioid modulators” (priority 2003, dated 2011) can be followed below.

Where two headings read alike, the source gives them in different places.

Test [1] concerns the target T1, Rat brain delta opioid receptor (Rattus norvegicus, UniProt P33533).
T1 construct: from tissue; host or cells: rat brain
As to the kind of experiment: Rat brain delta opioid receptor binding.

The target of test [2] is T2, Rat brain mu opioid receptor (Rattus norvegicus, UniProt P33535).
T2 construct: from tissue; host or cells: forebrain of male Sprague Dawley rats
T2 sequence (P33535 whole entry): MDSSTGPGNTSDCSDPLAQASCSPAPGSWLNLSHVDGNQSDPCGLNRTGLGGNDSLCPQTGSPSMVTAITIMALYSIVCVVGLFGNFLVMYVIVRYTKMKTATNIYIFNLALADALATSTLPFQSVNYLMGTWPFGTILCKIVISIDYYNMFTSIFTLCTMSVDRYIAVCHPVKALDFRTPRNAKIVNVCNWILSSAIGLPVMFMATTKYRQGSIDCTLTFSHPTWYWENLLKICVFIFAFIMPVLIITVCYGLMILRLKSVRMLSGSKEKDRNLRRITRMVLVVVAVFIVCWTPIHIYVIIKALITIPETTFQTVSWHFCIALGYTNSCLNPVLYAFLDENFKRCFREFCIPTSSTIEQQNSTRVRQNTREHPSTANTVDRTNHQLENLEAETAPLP
As to the kind of experiment: Rat brain mu opioid receptor binding assay ([3H]DAMGO). On the procedure: • Procedure: Male, Sprague Dawley (150-250 g, VAF, Charles River, Kingston, N.Y.) are killed by CO2, and their brains removed and placed immediately in ice cold Tris HCl buffer (50 mM, pH 7.4). The forebrains are separated from the remainder of the brain by a coronal transection, beginning dorsally at the colliculi and passing ventrally through the midbrain-pontine junction. After dissection, the forebrains are homogenized in Tris buffer in a Teflon®-glass homogenizer. The homogenate is diluted to a concentration of 1 g of forebrain tissue per 80 mL Tris and centrifuged at 39,000×g for 10 min. The pellet is resuspended in the same volume of Tris buffer containing 5 mM MgCl2 with several brief pulses from a Polytron homogenizer. This particulate preparation is used for the mu-opioid binding assays. […] Kd and Ki values are calculated using GraphPad PRISM data analysis program.

Test [3] addresses T3, human delta opioid receptor (Homo sapiens, UniProt P41143).
T3 construct: purchased Receptor Biology, Inc. (Baltimore, Md.); host or cells: CHO cells expressing the human delta receptor (membranes)
As to the kind of experiment: [35S]GTPγS binding assay in CHO-hδ cell membranes. The test is classed as biochemical. On the procedure:
CHO-hδ cell membranes are purchased from Receptor Biology, Inc. (Baltimore, Md.). 10 mg/ml of membrane protein is suspended in 10 mM TRIS-HC pH 7.2, 2 mM EDTA, 10% sucrose.
Membranes are maintained at 4-8° C. 1 ml of membranes is added into 15 ml cold binding assay buffer. The assay buffer contained 50 mM HEPES, pH 7.6, 5 mM MgCl2, 100 mM NaCl, 1 mM DTT and 1 mM EDTA. The membrane suspension is homogenized with a Polytron 2 times and centrifuged at 3000 rpm for 10 min. The supernatant is then centrifuged at 18,000 rpm for 20 min. The pellet is saved in a tube and 10 ml assay buffer is added into the tube. The pellet and buffer are mixed with a Polytron.
The pellet membranes (20 μg/ml) are preincubated with SPA (10 mg/ml) at 25° C. for 45 min in the assay buffer. The SPA (5 mg/ml) coupled with membranes (10 μg/ml) is then incubated with 0.5 nM [^35S]GTPgS in the same HEPES buffer containing 50 μM GDP in total volume of 200 μl. Increasing concentrations of receptor agonists are used to stimulate [^35S]GTPgS binding. The basal binding is tested in the absence of agonists and non-specific binding is tested in the presence of 10 μM unlabeled GTP S. The data are analyzed on a Top counter.
For orientation: Binding of GTPγS marks nucleotide exchange on a G protein.

T1 sequence (P33533 whole entry): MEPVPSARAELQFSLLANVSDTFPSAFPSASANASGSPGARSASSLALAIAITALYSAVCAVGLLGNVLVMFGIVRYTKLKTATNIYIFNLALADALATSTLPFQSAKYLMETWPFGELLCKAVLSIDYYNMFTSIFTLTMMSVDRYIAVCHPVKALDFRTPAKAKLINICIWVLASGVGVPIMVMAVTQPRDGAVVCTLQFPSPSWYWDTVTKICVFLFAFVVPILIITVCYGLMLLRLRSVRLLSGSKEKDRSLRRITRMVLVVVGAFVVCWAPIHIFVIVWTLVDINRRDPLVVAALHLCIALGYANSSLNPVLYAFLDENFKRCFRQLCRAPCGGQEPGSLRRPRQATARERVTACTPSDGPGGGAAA
T3 sequence (P41143 whole entry): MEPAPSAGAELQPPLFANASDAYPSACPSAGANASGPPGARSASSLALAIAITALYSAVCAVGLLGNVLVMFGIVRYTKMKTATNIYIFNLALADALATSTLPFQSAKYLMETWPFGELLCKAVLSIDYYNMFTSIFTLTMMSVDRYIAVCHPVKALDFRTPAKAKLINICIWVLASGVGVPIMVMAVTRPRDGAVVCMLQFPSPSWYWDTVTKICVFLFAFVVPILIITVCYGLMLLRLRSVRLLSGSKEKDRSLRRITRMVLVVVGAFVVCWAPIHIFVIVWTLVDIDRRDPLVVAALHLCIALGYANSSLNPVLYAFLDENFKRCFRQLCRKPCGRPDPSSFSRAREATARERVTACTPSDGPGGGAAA

With `C=CCN1CCC(=C2c3ccccc3COc3cc(C(=O)N(CC)CC)ccc32)CC1` [Compound 6, 11-(1-Allyl-piperidin-4-ylidene)-6,11-dihydro-dibenzo[b,e]oxepine-3-carboxylic acid diethylamide], the Ki (in general, the dissociation constant of the complex between target and ligand, obtained from inhibition or displacement) stood at 4.25 nM in test [1] (rDOR Ki) and 7910 nM in test [2] (read-out: rMOR Ki). In addition, the EC50 (in general, the concentration giving half of the maximal effect) in test [3] (human delta opioid receptor GTPγS functional assay, read-out: hDOR GTPγS EC50) worked out at 128 nM.
With `CCN(CC)C(=O)c1ccc2c(c1)Oc1ccc(-c3ccncc3)cc1C2=C1CC2CCC(C1)N2` [Compound 85], the figures for the Ki in test [1] (rDOR Ki) and in test [2] (rMOR Ki) were 3000 nM and 10700 nM, respectively.
The corresponding values for `CCN(CC)C(=O)c1ccc2c(c1)Oc1ccc(-c3ccsc3)cc1C2=C1CC2CCC(C1)N2` [Compound 90] are 836 nM and 12400 nM.
Compound `CCN(CC)C(=O)c1ccc2c(c1)Oc1ccccc1C2C1CCN(C)CC1` (stereo not drawn) [Compound 43, 9-(1-Methylpiperidin-4-yl)-9H-xanthene-3-carboxylic acid diethylamide] yielded a Ki in test [2] (rMOR Ki) of over 10000 nM.
For `CCCNC(=O)c1ccc2c(c1)Oc1ccccc1C2=C1CC2CCC(C1)N2` [Compound 63], the Ki in test [1] (rDOR Ki) was found to be 108 nM; in test [2] (rMOR Ki) it was 1730 nM.
On to `C=CCN1CCC(=C2c3ccccc3COc3cc(C(=O)NCC)ccc32)CC1` [Compound 19, 11-(1-Allyl-piperidin-4-ylidene)-6,11-dihydro-dibenzo[b,e]oxepine-3-carboxylic acid ethylamide], for which the results for the Ki in test [1] (read-out: rDOR Ki) and in test [2] (read-out: rMOR Ki) were 368 nM and 2870 nM, respectively.
Consider `CCN(CC)C(=O)c1ccc2c(c1)OCc1ccccc1C2=C1CCNCC1` [Compound 2], for which the Ki came to 0.91 nM in test [1] (rDOR Ki) and 2630 nM in test [2] (rMOR Ki). This compound also had a concentration for a half-maximal effect (EC50) in test [3] (hDOR GTPγS EC50, human delta opioid receptor GTPγS functional assay) of 58.6 nM.
Regarding `CC(C)NC(=O)c1ccc2c(c1)Oc1ccccc1C2=C1CC2CCC(C1)N2` [Compound 58], the Ki turned out to be 1160 nM in test [1] (rDOR Ki) and 2980 nM in test [2] (rMOR Ki).
Regarding `CN(C)C(=O)c1ccc2c(c1)Oc1ccccc1C2=C1CC2CCC(C1)N2` [Compound 57], the results for the Ki in test [1] (rDOR Ki) and in test [2] (rMOR Ki) were 397 nM and 5260 nM, respectively.
`CCN(CC)C(=O)c1ccc2c(c1)Oc1c(cccc1-c1ccccc1)C2=C1CC2CCC(C1)N2` [Compound 95, 9-(8-Aza-bicyclo[3.2.1]oct-3-ylidene)-5-phenyl-9H-xanthene-3-carboxylic acid diethylamide]: the figures for the Ki in test [1] (rDOR Ki) and in test [2] (rMOR Ki) were 25.4 nM and 6520 nM, respectively.
Regarding `CCNC(=O)c1ccc2c(c1)Oc1ccccc1C2=C1CCNCC1` [Compound 32, 9-Piperidin-4-ylidene-9H-xanthene-3-carboxylic acid ethylamide], the Ki in test [1] (rDOR Ki) worked out at 73 nM; in test [2] (read-out: rMOR Ki), 1490 nM.
Take `NC(=O)c1ccc2c(c1)Oc1ccccc1C2=C1CC2CCC(C1)N2` [Compound 65]: the results for the inhibition constant (Ki) in test [1] (rDOR Ki) and in test [2] (rMOR Ki) were 197 nM and 858 nM, respectively.
Consider `CCN(CC)C(=O)c1ccc2c(c1)Oc1c(F)cccc1C2=C1CC2CCC(C1)N2` [Compound 102], for which the inhibition constant (Ki) in test [1] (rDOR Ki) worked out at 68 nM; in test [2] (rMOR Ki) it was 2860 nM.
For `CCN(CC)C(=O)c1ccc2c(c1)Sc1ccccc1C2=C1CC2CCC(C1)N2Cc1c[nH]cn1` [Compound 74], the Ki in test [1] (rDOR Ki) is 3.79 nM; in test [2] (rMOR Ki), 848 nM.
Turning to `CCNC(=O)c1ccc2c(c1)Sc1ccccc1C2=C1CC2CCC(C1)N2` [Compound 80], the Ki in test [1] (rDOR Ki) came out at 260 nM; in test [2] (rMOR Ki), 473 nM.
The corresponding values for `CCN(CC)C(=O)c1ccc2c(c1)Oc1ccc(C)cc1C2=C1CC2CCC(C1)N2` [Compound 67] are 54.4 nM and 10900 nM.
In the case of `CCN(CC)C(=O)c1ccc2c(c1)Oc1ccc(-c3ccoc3)cc1C2=C1CC2CCC(C1)N2` [Compound 86], the results for the Ki in test [1] (rDOR Ki) and in test [2] (rMOR Ki) were 1760 nM and 12500 nM, respectively.
On to `CCNC(=O)c1ccc2c(c1)Oc1ccccc1C2=C1CC2CCC(C1)N2CCc1ccccc1` [Compound 27], for which the Ki in test [1] (read-out: rDOR Ki) stood at 209 nM; in test [2] (read-out: rMOR Ki), 189 nM.
The corresponding values for `CCNC(=O)c1ccc2c(c1)OCc1ccccc1C2=C1CCNCC1` [Compound 11, 11-Piperidin-4-ylidene-6,11-dihydro-dibenzo[b,e]oxepine-3-carboxylic acid ethylamide] are 317 nM and 5660 nM.
The corresponding values for `CCN(CC)C(=O)c1ccc2c(c1)Oc1ccc(NC(C)=O)cc1C2=C1CCN(C)CC1` [Compound 41, 7-Acetylamino-9-(1-methyl-piperidin-4-ylidene)-9H-xanthene-3-carboxylic acid diethylamide] are 5200 nM and over 10000 nM.
As for `CCN(CC)C(=O)c1ccc2c(c1)Oc1c(cccc1-c1cnc3ccccc3c1)C2=C1CC2CCC(C1)N2` [Compound 98], the Ki in test [1] (rDOR Ki) was 24.5 nM; in test [2] (read-out: rMOR Ki), 7360 nM.
As to `CCN(CC)C(=O)c1ccc2c(c1)Oc1ccc(NC(C)=O)cc1C2=C1CCNCC1` [Compound 34, 7-Acetylamino-9-piperidin-4-ylidene-9H-xanthene-3-carboxylic acid diethylamide], the Ki in test [1] (read-out: rDOR Ki) and in test [2] (read-out: rMOR Ki) was over 10000 nM throughout.
As to `C#CCN1CCC(=C2c3ccccc3Oc3cc(C(=O)N(CC)CC)ccc32)CC1` [Compound 33, 9-(1-Prop-2-ynyl-piperidin-4-ylidene)-9H-xanthene-3-carboxylic acid diethylamide], the Ki in test [1] (rDOR Ki) was 16.5 nM; in test [2] (rMOR Ki), 5420 nM.
As to `C=C(C)CN1CCC(=C2c3ccccc3COc3cc(C(=O)NCC)ccc32)CC1` [Compound 14], the Ki in test [1] (read-out: rDOR Ki) was found to be 432 nM; in test [2] (read-out: rMOR Ki) it was 4820 nM.
Take `CCNC(=O)c1ccc2c(c1)OCc1ccccc1C2=C1CCN(C)CC1` [Compound 9, 11-(1-Methyl-piperidin-4-ylidene)-6,11-dihydro-dibenzo[b,e]oxepine-3-carboxylic acid ethylamide]: the Ki in test [1] (read-out: rDOR Ki) and in test [2] (read-out: rMOR Ki) was over 100000 nM each time.
For the compound `CC(C)CN(C)C(=O)c1ccc2c(c1)Oc1ccccc1C2=C1CC2CCC(C1)N2` [Compound 59], the inhibitory constant (Ki) turned out to be 10.6 nM in test [1] (rDOR Ki) and 3340 nM in test [2] (rMOR Ki).
In the case of `CCNC(=O)c1ccc2c(c1)OCc1ccccc1C2=C1CCN(C(=O)OCC(Cl)(Cl)Cl)CC1` [Compound 10, 4-(3-Ethylcarbamoyl-6H-dibenzo[b,e]oxepin-11-ylidene) -piperidine-1-carboxylic acid 2,2,2-trichloro-ethyl ester], the results for the Ki in test [1] (read-out: rDOR Ki) and in test [2] (read-out: rMOR Ki) were over 100000 nM and 92500 nM, respectively.
As for `CNC(=O)c1ccc2c(c1)Oc1ccccc1C2=C1CC2CCC(C1)N2` [Compound 64], the Ki in test [1] (rDOR Ki) is 118 nM; in test [2] (rMOR Ki) it was 711 nM.
With `CCN(CC)C(=O)c1ccc2c(c1)Oc1ccc(-c3ccc[nH]3)cc1C2=C1CC2CCC(C1)N2` [Compound 93], the Ki in test [1] (rDOR Ki) and in test [2] (rMOR Ki) was over 10000 nM each time.
For `CCN(CC)C(=O)c1ccc2c(c1)Oc1cc(OC)ccc1C2=C1CC2CCC(C1)N2` [Compound 70, 9-(8-Aza-bicyclo[3.2.1]oct-3-ylidene)-6-methoxy-9H-xanthene-3-carboxylic acid diethylamide], the Ki is 2.31 nM in test [1] (rDOR Ki) and 5740 nM in test [2] (rMOR Ki).
As to `CCNC(=O)c1ccc2c(c1)OCc1ccccc1C2=C1CCN(CCc2ccccc2)CC1` [Compound 20], the figures for the inhibition constant Ki in test [1] (read-out: rDOR Ki) and in test [2] (read-out: rMOR Ki) were 23300 nM and 248 nM, respectively.
The corresponding values for `CCNC(=O)c1ccc2c(c1)OCc1ccccc1C2=C1CCN(Cc2ccc(O)c(OC)c2)CC1` [Compound 18] are 2000 nM and 2420 nM.
As to `CCN(CC)C(=O)c1ccc2c(c1)Oc1ccc(Br)cc1C2=C1CC2CCC(C1)N2` [Compound 83], the values for the Ki in test [1] (rDOR Ki) and in test [2] (rMOR Ki) were 139 nM and 17700 nM, respectively.
For `CCNC(=O)c1ccc2c(c1)OCc1ccccc1C2=C1CCN(Cc2cccs2)CC1` [Compound 13], the Ki in test [1] (read-out: rDOR Ki) was found to be 143 nM; in test [2] (read-out: rMOR Ki), 1900 nM.
In the case of `CCNC(=O)c1ccc2c(c1)Sc1ccccc1C2=C1CC2CCC(C1)N2` [Compound 81], the figures for the Ki in test [1] (rDOR Ki) and in test [2] (rMOR Ki) were 77.6 nM and 838 nM, respectively.
The corresponding values for `CCCN(CCC)C(=O)c1ccc2c(c1)Oc1ccccc1C2=C1CC2CCC(C1)N2` [Compound 60] are 4.62 nM and 836 nM.
On to `CCNC(=O)c1ccc2c(c1)Oc1ccccc1C2=C1CC2CCC(C1)N2` (single isomer, unassigned) [Compound 56], for which the Ki was found to be 161 nM in test [1] (read-out: rDOR Ki) and 712 nM in test [2] (read-out: rMOR Ki).
